Measurements reported in the NIST ThermoML archive (doi:10.1016/j.tca.2012.01.024).
± gives the expanded uncertainty stated by the source.

Assay: excess molar enthalpy (molar enthalpy of mixing); xn = mol fraction of the nth substance listed
Settings: 1273.2 K, 101 kPa, Liquid, Calvet calorimetry

`[Ni]` [nickel] + [Sn] gave an excess molar enthalpy (x1 = 0.213) of -2.29 ± 0.0232 kcal/mol.
Molecule `[Sb]` [antimony] + [Sn] has an excess molar enthalpy (x1 = 0.2665) of -0.257 ± 0.00287 kcal/mol, an excess molar enthalpy (x1 = 0.4886) of -0.315 ± 0.00335 kcal/mol and an excess molar enthalpy (x1 = 0.7372) of -0.233 ± 0.00263 kcal/mol.
In the case of `[Ni]` [nickel] + [Sb], the excess molar enthalpy (x1 = 0.2109) is reported as -2.58 ± 0.0263 kcal/mol.
